Results from US20220002314A1 (priority 2018, published 2022).
Where two headings read alike, the source gives them in different places.

Experiments:
Human μ-opioid receptor = Human μ-opioid receptor (Homo sapiens, UniProt P35372); assay: biochemical; format: binding
[1] = molecular target: Human α2δ-1 subunit of Cav2.2 calcium channel (Homo sapiens, UniProt P54289); assay: biochemical; format: binding
Chain of Human α2δ-1 subunit of Cav2.2 calcium channel (P54289 25-1103): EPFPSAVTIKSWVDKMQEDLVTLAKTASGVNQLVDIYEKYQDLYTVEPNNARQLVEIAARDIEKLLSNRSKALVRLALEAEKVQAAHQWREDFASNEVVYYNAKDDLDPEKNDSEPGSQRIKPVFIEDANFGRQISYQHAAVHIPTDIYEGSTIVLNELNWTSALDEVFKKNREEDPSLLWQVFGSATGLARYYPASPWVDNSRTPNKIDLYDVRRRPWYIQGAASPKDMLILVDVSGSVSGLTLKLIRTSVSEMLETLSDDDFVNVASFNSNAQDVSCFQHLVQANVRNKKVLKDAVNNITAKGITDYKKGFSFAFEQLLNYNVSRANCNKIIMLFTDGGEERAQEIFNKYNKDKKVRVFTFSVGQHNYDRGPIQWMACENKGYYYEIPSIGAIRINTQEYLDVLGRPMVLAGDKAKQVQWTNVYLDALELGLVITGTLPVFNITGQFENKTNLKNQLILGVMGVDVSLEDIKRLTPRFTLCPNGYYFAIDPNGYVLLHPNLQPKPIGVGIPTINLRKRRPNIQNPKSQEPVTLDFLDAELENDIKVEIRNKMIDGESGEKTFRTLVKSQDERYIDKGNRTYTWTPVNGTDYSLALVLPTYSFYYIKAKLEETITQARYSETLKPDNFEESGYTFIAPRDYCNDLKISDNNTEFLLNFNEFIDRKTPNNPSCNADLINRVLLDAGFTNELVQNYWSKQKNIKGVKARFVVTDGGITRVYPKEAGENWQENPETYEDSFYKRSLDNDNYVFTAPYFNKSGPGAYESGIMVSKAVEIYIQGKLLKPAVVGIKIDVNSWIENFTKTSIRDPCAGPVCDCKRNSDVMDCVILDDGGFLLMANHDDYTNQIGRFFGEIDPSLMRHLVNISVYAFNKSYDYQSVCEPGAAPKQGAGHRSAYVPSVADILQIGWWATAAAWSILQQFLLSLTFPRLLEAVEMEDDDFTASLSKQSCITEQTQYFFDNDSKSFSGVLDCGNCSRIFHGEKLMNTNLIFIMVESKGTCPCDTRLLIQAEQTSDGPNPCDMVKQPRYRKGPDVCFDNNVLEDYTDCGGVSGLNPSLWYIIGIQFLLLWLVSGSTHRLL

Chain of Human μ-opioid receptor (P35372 whole entry): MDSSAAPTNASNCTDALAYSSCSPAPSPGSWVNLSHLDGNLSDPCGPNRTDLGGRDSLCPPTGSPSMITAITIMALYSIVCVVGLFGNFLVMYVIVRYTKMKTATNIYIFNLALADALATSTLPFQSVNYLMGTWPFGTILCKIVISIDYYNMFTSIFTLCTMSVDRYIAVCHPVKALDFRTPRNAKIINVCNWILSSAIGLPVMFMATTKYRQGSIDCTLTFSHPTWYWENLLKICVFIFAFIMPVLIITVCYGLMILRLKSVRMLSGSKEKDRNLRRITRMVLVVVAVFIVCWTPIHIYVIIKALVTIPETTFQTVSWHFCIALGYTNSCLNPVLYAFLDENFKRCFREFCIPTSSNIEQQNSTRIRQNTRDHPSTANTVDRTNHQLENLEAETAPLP

Ki (Human μ-opioid receptor; read-out: μ-binding) [nM]	Ki ([1]; read-out: α2δ-1 binding) [nM]	SMILES	Ki (Human μ-opioid receptor) [nM]	Ki [1] [nM]	Ki (Human μ-opioid receptor; binding to μ-opioid receptor expressed as Ki, + also Ki>500 nM or inhibition between 1% and 50%, read-out: μ-binding) [nM]
–	–	CCC[C@@H](c1nc2c(F)cc(Br)cc2c(=O)n1CC)N1CCN[C@@H](C)C1 [Example 52, 6-bromo-3-ethyl-8-fluoro-2-((S)-1-((S)-3-methylpiperazin-1-yl)butyl)quinazolin-4(3H)-one]	> 500	> 5000	–
–	–	CCC[C@@H](c1nc2cc(F)c(Br)cc2c(=O)n1CC)N1CCN[C@@H](C)C1 [Example 105, 6-Bromo-3-ethyl-7-fluoro-2-((S)-1-((S)-3-methylpiperazin-1-yl)butyl)quinazolin-4(3H)-one]	> 500	< 500	–
> 500	> 5000	COCCn1c(C(CC(C)C)N2C[C@@H](C)N[C@@H](C)C2)nc2ccccc2c1=O (stereo partly drawn) [Example 114, 2-(1-((3S,5R)-3,5-dimethylpiperazin-1-yl)-3-methylbutyl)-3-(2-methoxyethyl)quinazolin-4(3H)-one]	–	–	–
–	–	CCCC(c1nc2cc(CN3CCN(C)CC3)ccc2c(=O)n1C)N1C[C@@H](C)N[C@@H](C)C1 (stereo partly drawn) [Example 186, 2-(1-((3S,5R)-3,5-dimethylpiperazin-1-yl)butyl)-3-methyl-7-((4-methylpiperazin-1-yl)methyl)quinazolin-4(3H)-one]	> 500	< 500	–
–	–	CCC[C@H](c1nc2ccc(Br)cc2c(=O)n1CC)N1C[C@H](C)N[C@@H](C)C1 [Example 228, 6-Bromo-2-((R)-1-((3S,5S)-3,5-dimethylpiperazin-1-yl)butyl)-3-ethylquinazolin-4(3H)-one]	< 100	> 5000	–
–	–	CCC[C@H](c1nc2ccc(F)cc2c(=O)n1CCC)N1CCN[C@@H](C)C1 [Example 202, 6-fluoro-2-((R)-1-((S)-3-methylpiperazin-1-yl)butyl)-3-propylquinazolin-4(3H)-one]	> 500	< 500	–
–	–	CCC[C@H](c1nc2c(F)cc(Br)cc2c(=O)n1CC)N1CCN[C@@H](C)C1 [Example 51, 6-Bromo-3-ethyl-8-fluoro-2-((R)-1-((S)-3-methylpiperazin-1-yl)butyl)quinazolin-4(3H)-one]	100 to 500	< 500	–
–	–	CCC[C@@H](c1nc2ccc(Br)cc2c(=O)n1CC)N1CCN[C@@H](CO)C1 [Example 61, 6-bromo-3-ethyl-2-((S)-1-((R)-3-(hydroxymethyl)piperazin-1-yl)butyl)quinazolin-4(3H)-one]	> 500	> 5000	–
–	–	CCCC(c1nc2cc(-c3ccnc(OC)c3)ccc2c(=O)n1CC)N1C[C@@H](C)N[C@@H](C)C1 (stereo partly drawn) [Example 135, 2-(1-((3S,5R)-3,5-dimethylpiperazin-1-yl)butyl)-3-ethyl-7-(2-methoxypyridin-4-yl)quinazolin-4(3H)-one]	> 500	< 500	–
–	–	CCCC(c1nc2c(F)cc(Br)cc2c(=O)n1CC)N1CCNCC1 (stereo not shown) [Example 87, 6-bromo-3-ethyl-8-fluoro-2-(1-(piperazin-1-yl)butyl)quinazolin-4(3H)-one]	100 to 500	500 to 5000	–
–	–	CCC[C@H](c1nc2ncc(Br)cc2c(=O)n1CC)N1CCN[C@@H](C)C1 [Example 68, 6-Bromo-3-ethyl-2-((R)-1-((S)-3-methylpiperazin-1-yl)butyl)pyrido[2,3-d]pyrimidin-4(3H)-one]	> 500	< 500	–
–	–	CCCC(c1nc2ccc(CN(C)Cc3ccccc3)cc2c(=O)n1CC)N1C[C@@H](C)N[C@@H](C)C1 (stereo partly drawn) [Example 183, 6-((benzyl(methyl)amino)methyl)-2-(1-((3S,5R)-3,5-dimethylpiperazin-1-yl)butyl)-3-ethylquinazolin-4(3H)-one]	> 500	< 500	–
–	–	CCCC(c1nc2ccc(N(C)C3CCN(C)CC3)cc2c(=O)n1CC)N1C[C@@H](C)N[C@@H](C)C1 (stereo partly drawn) [Example 143, 2-(1-((3S,5R)-3,5-dimethylpiperazin-1-yl)butyl)-3-ethyl-6-(methyl(1-methylpiperidin-4-yl)amino)quinazolin-4(3H)-one]	–	< 500	> 500
–	–	CCC[C@@H](c1nc2cc(Cl)c(Cl)cc2c(=O)n1CC)N1CCN[C@@H](C)C1 [Example 50, 6,7-dichloro-3-ethyl-2-((S)-1-((S)-3-methylpiperazin-1-yl)butyl)quinazolin-4(3H)-one]	> 500	> 5000	–
> 500	500 to 5000	CCCC(c1nc2ccccc2c(=O)n1CCN(C)CCc1ccccc1)N1C[C@@H](C)N[C@@H](C)C1 (stereo partly drawn) [Example 129, 2-(1-((3S,5R)-3,5-dimethylpiperazin-1-yl)butyl)-3-(2-(methyl(phenethyl)amino)ethyl)quinazolin-4(3H)-one]	–	–	–
–	–	CCC[C@@H](c1nc2ccc(Br)cc2c(=O)n1CC)[C@H]1CCN[C@@H](C)C1 [Example 190, 6-Bromo-3-ethyl-2-((R)-1-((2S,4S)-2-methylpiperidin-4-yl)butyl)quinazolin-4(3H)-one]	> 500	> 5000	–

Ki (Human μ-opioid receptor; read-out: μ-binding) [nM]	Ki ([1]; read-out: α2δ-1 binding) [nM]	SMILES	Ki (Human μ-opioid receptor) [nM]	Ki [1] [nM]	Ki (Human μ-opioid receptor; binding to μ-opioid receptor expressed as Ki, + also Ki>500 nM or inhibition between 1% and 50%, read-out: μ-binding) [nM]
–	–	CCCC(c1nc2cc(C)ccc2c(=O)n1CC)N1C[C@@H](C)N[C@@H](C)C1 (stereo partly drawn) [Example 4, 2-(1-((3S,5R)-3,5-dimethylpiperazin-1-yl)butyl)-3-ethyl-7-methylquinazolin-4(3H)-one]	> 500	< 500	–
> 500	> 5000	CCCC(c1nc2c(C)cc(Br)cc2c(=O)n1CC)N1C[C@@H](C)N[C@@H](C)C1 (stereo partly drawn) [Example 20, 6-bromo-2-(1-((3S,5R)-3,5-dimethylpiperazin-1-yl)butyl)-3-ethyl-8-methylquinazolin-4(3H)-one]	–	–	–
> 500	500 to 5000	CCCC(c1nc2ccc(Br)cc2c(=O)n1CCC(=O)OCC)N1C[C@@H](C)N[C@@H](C)C1 (stereo partly drawn) [Example 122, ethyl 3-(6-bromo-2-(1-((3S,5R)-3,5-dimethylpiperazin-1-yl)butyl)-4-oxoquinazolin-3(4H)-yl)propanoate]	–	–	–
–	–	CCCC(c1nc2ccc(NCCNC)cc2c(=O)n1CC)N1C[C@@H](C)N[C@@H](C)C1 (stereo partly drawn) [Example 145, 2-(1-((3S,5R)-3,5-dimethylpiperazin-1-yl)butyl)-3-ethyl-6-((2-(methylamino)ethyl)amino)quinazolin-4(3H)-one]	> 500	< 500	–
–	–	CCC[C@H](c1nc2ccc(Br)cc2c(=O)n1CC)N1CCN[C@@H](C)C1 [Example 97, 6-Bromo-3-ethyl-2-((R)-1-((S)-3-methylpiperazin-1-yl)butyl)quinazolin-4(3H)-one]	100 to 500	< 500	–
–	–	CCC[C@H](c1nc2ccc(Cl)cc2c(=O)n1CC)N1CCN[C@@H](CF)C1 [Example 230, 6-chloro-3-ethyl-2-((R)-1-((R)-3-(fluoromethyl)piperazin-1-yl)butyl)quinazolin-4(3H)-one]	> 500	500 to 5000	–
–	–	CCCC(c1nc2cc(NCC)ccc2c(=O)n1CC)N1C[C@@H](C)N[C@@H](C)C1 (stereo partly drawn) [Example 25, 2-(1-((3S,5R)-3,5-dimethylpiperazin-1-yl)butyl)-3-ethyl-7-(ethylamino)quinazolin-4(3H)-one]	> 500	< 500	–
–	–	CCCC(c1nc2ccc(Br)cc2c(=O)n1C)N1C[C@@H](C)N[C@@H](C)C1 (stereo partly drawn) [Example 16, 6-bromo-2-(1-((3S,5R)-3,5-dimethylpiperazin-1-yl)butyl)-3-methylquinazolin-4(3H)-one]	> 500	< 500	–
–	–	CCCC(c1nc2cc(C(=O)OC)ccc2c(=O)n1CC)N1C[C@@H](C)N[C@@H](C)C1 (stereo partly drawn) [Example 7, methyl 2-(1-((3S,5R)-3,5-dimethylpiperazin-1-yl)butyl)-3-ethyl-4-oxo-3,4-dihydroquinazoline-7-carboxylate]	100 to 500	< 500	–
–	–	CCC[C@H](c1nc2ccccc2c(=O)n1CCOC)N1C[C@@H](C)N[C@@H](C)C1 [Example 123, 2-((R)-1-((3S,5R)-3,5-Dimethylpiperazin-1-yl)butyl)-3-(2-methoxyethyl)quinazolin-4(3H)-one]	> 500	< 500	–
–	–	CCC[C@@H](c1nc2ccc(NCC[C@]3(c4ccccn4)CCOC4(CCCC4)C3)cc2c(=O)n1CC)N1C[C@@H](C)N[C@@H](C)C1 [Example 161, 2-((S)-1-((3S,5R)-3,5-dimethylpiperazin-1-yl)butyl)-3-ethyl-6-((2-((S)-9-(pyridin-2-yl)-6-oxaspiro[4.5]decan-9-yl)ethyl)amino)quinazolin-4(3H)-one]	> 500	> 5000	–
–	–	CCC[C@H](c1nc2ccc(Cl)cc2c(=O)n1C)N1CCN[C@@H](C)C1 [Example 198, 6-chloro-3-methyl-2-((R)-1-((S)-3-methylpiperazin-1-yl)butyl)quinazolin-4(3H)-one]	100 to 500	< 500	–
–	–	CCC[C@H](c1nc2ccc(C(F)(F)F)cc2c(=O)n1CC)N1CCN[C@@H](C)C1 [Example 207, 3-ethyl-2-((R)-1-((S)-3-methylpiperazin-1-yl)butyl)-6-(trifluoromethyl)quinazolin-4(3H)-one]	100 to 500	< 500	–
–	–	CCCC(c1nc2ccc(N(C)Cc3ccccc3)cc2c(=O)n1CC)N1C[C@@H](C)N[C@@H](C)C1 (stereo partly drawn) [Example 144, 6-(benzyl(methyl)amino)-2-(1-((3S,5R)-3,5-dimethylpiperazin-1-yl)butyl)-3-ethylquinazolin-4(3H)-one]	> 500	< 500	–
–	–	CCCC(c1nc2ccc(Br)cc2c(=O)n1CC)N1CCNCC1 (stereo not shown) [Example 79, 6-Bromo-3-ethyl-2-(1-(piperazin-1-yl)butyl)quinazolin-4(3H)-one]	> 500	< 500	–

SMILES	Ki (Human μ-opioid receptor; read-out: μ-binding) [nM]	Ki ([1]; read-out: α2δ-1 binding) [nM]	Ki (Human μ-opioid receptor) [nM]	Ki [1] [nM]	Ki (Human μ-opioid receptor; binding to μ-opioid receptor expressed as Ki, + also Ki>500 nM or inhibition between 1% and 50%, read-out: μ-binding) [nM]
COCCn1c(C(CC2CC2)N2C[C@@H](C)N[C@@H](C)C2)nc2ccccc2c1=O (stereo partly drawn) [Example 116, 2-(2-cyclopropyl-1-((3S,5R)-3,5-dimethylpiperazin-1-yl)ethyl)-3-(2-methoxyethyl)quinazolin-4(3H)-one]	> 500	–	–	500 to 5000	–
CCCC(c1nc2c(Br)cccc2c(=O)n1CC)N1C[C@@H](C)N[C@@H](C)C1 (stereo partly drawn) [Example 13, 8-bromo-2-(1-((3S,5R)-3,5-dimethylpiperazin-1-yl)butyl)-3-ethylquinazolin-4(3H)-one]	> 500	–	–	> 5000	–
CCC[C@@H](c1nc2ccccc2c(=O)n1CC)N1C[C@@H](C)N[C@@H](C)C1 [Example 33, 2-((S)-1-((3S,5R)-3,5-Dimethylpiperazin-1-yl)butyl)-3-ethylquinazolin-4(3H)-one]	–	500 to 5000	–	–	–
